According to the supplement of paper PMC10307832:

Key:
Assay in all cases: relative viability (nuclei count vs DMSO), 5 days (fraction); higher = more cells survive
[1] = compound: CC(C)N(CCCNC(=O)Nc1ccc(C(C)(C)C)cc1)C[C@H]1O[C@@H](n2ccc3c(N)ncnc32)[C@H](O)[C@@H]1O + O=C(CCCCCCC(=O)Nc1ccccc1)NO [Vorinostat] (partner 1 µM)
Outline: (§1)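 Relative viability divides the nuclei count in treated wells by that in vehicle wells. Lung cancer cell lines were seeded in 1536-well plates, dosed by pin tool the next day, and fixed and stained after 5 days in one step with final 0.05% Triton X-100, 1% formaldehyde and 1 ug/ml Hoechst. Dosing was a single drug or a fixed anchor-drug dose plus five library-drug doses (not always all listed) in √10 steps, and values are medians of duplicate plates imaged at 4×.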

Shikonin + Palbociclib = compound: CC(C)=CC[C@@H](O)C1=CC(=O)c2c(O)ccc(O)c2C1=O [Shikonin] + CC(=O)c1c(C)c2cnc(Nc3ccc(N4CCNCC4)cn3)nc2n(C2CCCC2)c1=O [Palbociclib] (partner 0.5 µM)
Outline: as §1

[2] = compound: CC(C)N(CCCNC(=O)Nc1ccc(C(C)(C)C)cc1)C[C@H]1O[C@@H](n2ccc3c(N)ncnc32)[C@H](O)[C@@H]1O + CC(C)C[C@H](NC(=O)[C@H](Cc1ccccc1)NC(=O)c1cnccn1)B(O)O [Bortezomib] (partner 0.002 µM)
Outline: as §1

Shikonin + Crizotinib = compound: CC(C)=CC[C@@H](O)C1=CC(=O)c2c(O)ccc(O)c2C1=O [Shikonin] + C[C@@H](Oc1cc(-c2cnn(C3CCNCC3)c2)cnc1N)c1c(Cl)ccc(F)c1Cl [Crizotinib] (partner 1 µM)
Outline: as §1

Row | Cell Line | relative viability ([1]; first compound 0.08 µM) | relative viability ([1]; first compound 0.253 µM) | relative viability ([1]; first compound 0.8 µM) | relative viability ([1]; first compound 2.53 µM) | relative viability ([1]; first compound 8 µM) | relative viability (Shikonin + Palbociclib; first compound 0.01 µM) | relative viability (Shikonin + Palbociclib; first compound 0.1 µM) | relative viability (Shikonin + Palbociclib; first compound 0.3162 µM) | relative viability (Shikonin + Palbociclib; first compound 1 µM) | relative viability ([2]; first compound 0.08 µM) | relative viability ([2]; first compound 0.253 µM) | relative viability ([2]; first compound 0.8 µM) | relative viability ([2]; first compound 2.53 µM) | relative viability ([2]; first compound 8 µM) | relative viability (Shikonin + Crizotinib; first compound 0.01 µM) | relative viability (Shikonin + Crizotinib; first compound 0.1 µM) | relative viability (Shikonin + Crizotinib; first compound 0.3162 µM) | relative viability (Shikonin + Crizotinib; first compound 1 µM)
1 | NCI-H3122 | 0.957 | 1.2 | 0.894 | 0.991 | 0.921 | 0.228 | 0.215 | 0.178 | 0.176 | 1.02 | 0.994 | 1.04 | 1.03 | 0.978 | 0.288 | 0.271 | 0.278 | 0.248
2 | PC-3 [JPC-3] | 0.813 | 0.761 |  | 0.741 | 0.695 | 0.59 | 0.589 | 0.538 | 0.552 | 0.79 | 0.927 | 0.317 | 0.749 | 0.815 | 1.03 | 1.14 | 1.03 | 0.986
3 | PC-14 | 0.71 | 0.722 | 0.624 | 0.702 | 0.561 | 0.397 | 0.535 | 0.524 | 0.509 | 0.83 | 0.852 | 0.859 | 1 | 0.743 | 0.984 | 1.02 | 0.841 | 1.03
4 | RERF-LC-KJ | 0.638 | 0.741 | 0.551 | 0.742 | 0.707 | 1.09 | 1.13 | 1.1 | 1.08 | 0.97 | 1.15 | 1.09 | 1.04 | 0.971 | 0.945 | 0.91 | 0.829 | 0.899
5 | SK-LU-1 | 0.742 | 0.775 | 0.87 | 0.87 | 0.736 | 0.379 | 0.404 | 0.437 | 0.373 | 1.22 | 1.02 | 1.18 | 1.31 | 1.03 | 1.11 | 0.937 | 0.928 | 0.877
6 | SW 1573 | 0.596 | 0.666 | 0.648 | 0.893 | 0.886 | 0.513 | 0.344 | 0.323 | 0.093 | 1.13 | 1.07 | 1.06 | 1.12 | 0.864 | 0.906 | 0.867 | 0.889 | 0.741
